{"source": "patent US20210214758A1", "about": "“METHODS AND TOOLS FOR DETERMINING CLONAL RELATEDNESS AND PREDICTING CLONAL TRAITS” (priority 2018, published 2021)", "key": {"[1]": {"tested_on": "Klebsiella isolates", "conditions": "known; cited from earlier work"}, "[2]": {"tested_on": "Klebsiella isolates", "assay": "Antibiotic susceptibility of Klebsiella clinical isolates per 7-SNP clonotype (Lookup Table 1; disk diffusion)", "format": "cell-based, Klebsiella spp."}}}
{"smiles": "CC1(C)S[C@@H]2[C@H](NC(=O)[C@H](N)c3ccccc3)C(=O)N2[C@H]1C(=O)O", "note": "[AMP, ampicillin]", "values": [{"measurement": "resistance or sensitivity of almost all Klebsiella isolates", "setting": "[1]", "value": "resistant"}, {"measurement": "susceptibility, %", "setting": "[2]; CT 000", "value": 34, "unit": "%"}, {"measurement": "susceptibility, %", "setting": "[2]; CT 001", "value": 0, "unit": "%"}, {"measurement": "susceptibility, %", "setting": "[2]; CT 010", "value": 0, "unit": "%"}, {"measurement": "susceptibility, %", "setting": "[2]; CT 011", "value": 0, "unit": "%"}, {"measurement": "susceptibility, %", "setting": "[2]; CT 031", "value": 0, "unit": "%"}, {"measurement": "susceptibility, %", "setting": "[2]; CT 040", "value": 25, "unit": "%"}, {"measurement": "susceptibility, %", "setting": "[2]; CT 050", "value": 0, "unit": "%"}, {"measurement": "susceptibility, %", "setting": "[2]; CT 051", "value": 0, "unit": "%"}, {"measurement": "susceptibility, %", "setting": "[2]; CT 071", "value": 0, "unit": "%"}, {"measurement": "susceptibility, %", "setting": "[2]; CT 100", "value": 0, "unit": "%"}, {"measurement": "susceptibility, %", "setting": "[2]; CT 110", "value": 0, "unit": "%"}, {"measurement": "susceptibility, %", "setting": "[2]; CT 111", "value": 0, "unit": "%"}, {"measurement": "susceptibility, %", "setting": "[2]; CT 130", "value": 2, "unit": "%"}, {"measurement": "susceptibility, %", "setting": "[2]; CT 131", "value": 0, "unit": "%"}, {"measurement": "susceptibility, %", "setting": "[2]; CT 141", "value": 0, "unit": "%"}, {"measurement": "susceptibility, %", "setting": "[2]; CT 150", "value": 0, "unit": "%"}, {"measurement": "susceptibility, %", "setting": "[2]; CT 151", "value": 2, "unit": "%"}, {"measurement": "susceptibility, %", "setting": "[2]; CT 160", "value": 0, "unit": "%"}, {"measurement": "susceptibility, %", "setting": "[2]; CT 170", "value": 4, "unit": "%"}, {"measurement": "susceptibility, %", "setting": "[2]; CT 171", "value": 0, "unit": "%"}, {"measurement": "susceptibility, %", "setting": "[2]; CT 200", "value": 9, "unit": "%"}, {"measurement": "susceptibility, %", "setting": "[2]; CT 201", "value": 6, "unit": "%"}, {"measurement": "susceptibility, %", "setting": "[2]; CT 210", "value": 0, "unit": "%"}, {"measurement": "susceptibility, %", "setting": "[2]; CT 211", "value": 2, "unit": "%"}, {"measurement": "susceptibility, %", "setting": "[2]; CT 230", "value": 0, "unit": "%"}, {"measurement": "susceptibility, %", "setting": "[2]; CT 231", "value": 0, "unit": "%"}, {"measurement": "susceptibility, %", "setting": "[2]; CT 240", "value": 0, "unit": "%"}, {"measurement": "susceptibility, %", "setting": "[2]; CT 241", "value": 0, "unit": "%"}, {"measurement": "susceptibility, %", "setting": "[2]; CT 250", "value": 0, "unit": "%"}, {"measurement": "susceptibility, %", "setting": "[2]; CT 251", "value": 0, "unit": "%"}, {"measurement": "susceptibility, %", "setting": "[2]; CT 271", "value": 0, "unit": "%"}, {"measurement": "susceptibility, %", "setting": "[2]; CT 300", "value": 0, "unit": "%"}, {"measurement": "susceptibility, %", "setting": "[2]; CT 301", "value": 0, "unit": "%"}, {"measurement": "susceptibility, %", "setting": "[2]; CT 310", "value": 0, "unit": "%"}, {"measurement": "susceptibility, %", "setting": "[2]; CT 311", "value": 0, "unit": "%"}, {"measurement": "susceptibility, %", "setting": "[2]; CT 330", "value": 0, "unit": "%"}, {"measurement": "susceptibility, %", "setting": "[2]; CT 331", "value": 1, "unit": "%"}, {"measurement": "susceptibility, %", "setting": "[2]; CT 350", "value": 0, "unit": "%"}, {"measurement": "susceptibility, %", "setting": "[2]; CT 351", "value": 0, "unit": "%"}, {"measurement": "susceptibility, %", "setting": "[2]; CT 370", "value": 0, "unit": "%"}, {"measurement": "susceptibility, %", "setting": "[2]; CT 371", "value": 0, "unit": "%"}, {"measurement": "susceptibility, %", "setting": "[2]; CT 411", "value": 0, "unit": "%"}, {"measurement": "susceptibility, %", "setting": "[2]; CT 450", "value": 0, "unit": "%"}, {"measurement": "susceptibility, %", "setting": "[2]; CT 451", "value": 0, "unit": "%"}, {"measurement": "susceptibility, %", "setting": "[2]; CT 510", "value": 0, "unit": "%"}, {"measurement": "susceptibility, %", "setting": "[2]; CT 511", "value": 0, "unit": "%"}, {"measurement": "susceptibility, %", "setting": "[2]; CT 530", "value": 0, "unit": "%"}, {"measurement": "susceptibility, %", "setting": "[2]; CT 531", "value": 0, "unit": "%"}, {"measurement": "susceptibility, %", "setting": "[2]; CT 550", "value": 0, "unit": "%"}, {"measurement": "susceptibility, %", "setting": "[2]; CT 551", "value": 0, "unit": "%"}, {"measurement": "susceptibility, %", "setting": "[2]; CT 570", "value": 0, "unit": "%"}, {"measurement": "susceptibility, %", "setting": "[2]; CT 571", "value": 0, "unit": "%"}, {"measurement": "susceptibility, %", "setting": "[2]; CT 611", "value": 0, "unit": "%"}, {"measurement": "susceptibility, %", "setting": "[2]; CT 630", "value": 0, "unit": "%"}, {"measurement": "susceptibility, %", "setting": "[2]; CT 650", "value": 0, "unit": "%"}, {"measurement": "susceptibility, %", "setting": "[2]; CT 651", "value": 4, "unit": "%"}, {"measurement": "susceptibility, %", "setting": "[2]; CT 670", "value": 0, "unit": "%"}, {"measurement": "susceptibility, %", "setting": "[2]; CT 710", "value": 0, "unit": "%"}, {"measurement": "susceptibility, %", "setting": "[2]; CT 730", "value": 0, "unit": "%"}, {"measurement": "susceptibility, %", "setting": "[2]; CT 731", "value": 0, "unit": "%"}, {"measurement": "susceptibility, %", "setting": "[2]; CT 750", "value": 0, "unit": "%"}, {"measurement": "susceptibility, %", "setting": "[2]; CT 751", "value": 17, "unit": "%"}, {"measurement": "susceptibility, %", "setting": "[2]; CT 771", "value": 0, "unit": "%"}, {"measurement": "susceptibility, %", "setting": "[2]; CT Any Klebsiella spp.", "value": 6, "unit": "%"}]}
